Literature values as cited in patent US8697660B2, “Compounds and compositions for treating infection” (International Patent Holdings LLC, priority 2011, dated 2014).

System: HIV-1

Prunellin
minimum inhibition concentration against HIV-1 in vitro: 2.2 µg/mL
